Article PMC8164609 (Environmental Science and Pollution Research International, 2021)
Read-outs that look alike come from different tables or passages of the source.

How the values were obtained:
MCF-7 cells [1] = experiment: MCF-7 cell proliferation assay (MTT reduction); format: cell-based, human
Procedure: MCF-7 cell line which is sensitive to estrogen (ERα^+) was kindly provided by Dr. Sari Tojkander (Department of Veterinary Biosciences, Faculty of Veterinary Medicine, University of Helsinki). Cells were usually grown in T25 or T75 flasks containing DMEM with or without phenol red and supplemented with 7–10% FBS and 4 mM L-glutamine at 37°C in 5% CO2/95% humidified atmosphere. In order to eliminate the disturbing effect of hormones usually present in FBS, cell culture medium supplemented with commercially available charcoal-stripped FBS and 4 mM L-glutamine (SF medium) was used for experiments.
The effect of EEDCs on the proliferation of MCF-7 cells was assessed as previously described by measuring the capacity of the cells in each well to reduce MTT reagent (Van Meeuwen et al. [2007]). Approximately 5000 cells/200 μL of SF medium containing DMEM without phenol red, 5% charcoal-stripped FBS, and 4 mM L-glutamine were seeded per well in a 96-well cell culture plate. On day 2, cells were treated with the SF medium containing test compounds or vehicle. The final concentration of the solvents DMSO and EtOH was lower than 0.1%. On day 5, the SF medium containing test compounds or vehicle were refreshed. On day 8, cells were washed with PBS twice and then incubated with the SF medium containing 1 mg/mL MTT reagent for 1 h. The ability of MCF-7 cells to reduce MTT was measured at the reference wavelength of 595 nm using a microplate reader (Multiskan Ascent, Thermo Fisher Scientific). All the exposures were in triplicate.
The dose-response curves of test samples were plotted against logarithmic-transformed concentrations.

MCF-7 cells [2] = experiment: LDH cytotoxicity test; conditions: 24 h, up to 10^−4 M
Procedure: Cytotoxicity was assessed by lactate dehydrogenase (LDH) release. For LDH measurement, Pierce LDH Cytotoxicity Assay Kit (Thermo Scientific, Rockford, USA) was used. MCF-7 cells were seeded at 2.8×10^5 in a transparent 96-well plate, and corner cells of the plate were filled with PBS to prevent the edge effect. SF medium containing DMEM without phenol red, 1% charcoal-stripped FBS, and 4 mM L-glutamine were used for this assay. Plates were incubated for 24 h, and then the cells were treated with test compounds at concentrations ranging from 10^−14 to 10^−4 M or vehicle for another 24 h. On day 3, culture supernatant was collected in a separate 96-well plate, and the assay was continued according to the manufacturer’s instructions. Final absorbance was measured with the microplate reader at 490 and 680 nm. […] Vehicle control was 0.1% EtOH or DMSO. All the exposures were in triplicate, and the experiment was carried out twice.

S. cerevisiae BMA64/luc = conditions: values higher than 2 are considered toxic
Procedure: (§1) Yeast bioluminescent assay was performed as previously described (Omoruyi and Pohjanvirta [2018]). Two recombinant yeasts, Saccharomyces cerevisiae BMAEREluc/ERα and Saccharomyces cerevisiae BMA64/luc, were kindly provided by Dr. Johanna Rajasärkkä, Department of Food and Environmental Sciences, Faculty of Agriculture and Forestry, University of Helsinki. In the BMAEREluc/ERα, human ERα is expressed. After estrogen-like chemicals bind to ERα, the dimerized receptor binds to a specific DNA sequence called estrogen response element (ERE), in the promotor region of the luc reporter gene, inducing its expression. In BMA64/luc, the luciferase is expressed constitutively, and this strain can be used for the evaluation of cytotoxicity of test compounds.
Both strains were revived from glycerol stock solution on agar and broth forms of synthetic complete medium supplemented with the required amino acids. After the absence of contamination was confirmed by observing single colonies’ morphology on agar plate, approximately 10 μL of cultured yeasts in broth was transferred to 4 mL of synthetic defined (SD) medium supplemented with the required amino acids. The culture was incubated at 30°C on a shaker incubator (200 rpm). After 24-h incubation, the culture was diluted with SD broth to reach the optimal density (OD600) of 0.4 CFU/mL. Subsequently, the culture was incubated in the same incubation condition until the OD600 reached 0.6–0.7 CFU/mL.
(§2) Next, 90 μL of cultured yeasts containing 1:20 luciferin solution (0.042 g luciferin dissolved in 9.75 mL of 0.2 M trisodium citrate, and 5.525 mL of 0.2 M citrate, pH 5) was pipetted into every well of a white 96-well flat-bottom plate, and 10 μL of test compounds in a defined concentration range (diluted in 5% EtOH) were added. The plate was incubated at 30°C for approximately 2.5 h, and was then shaken briefly. The luminescence measurement was performed with Luminoskan Ascent microplate luminometer (Thermo Labsystems) using the recommended settings as follows: 1000 ms integration time, single measurement mode, shaking at 60 rpm for 5 s prior to measurement.
Each concentration of test compounds and controls in the assay was tested in triplicate, and the experiment was performed twice.
* The Correction Factor is the luminescence of the strain BMA64/luc with blank solvent divided by the luminescence of the control strain with the sample. Values higher than 2 are considered toxic (Leskinen et al. 2005).
* The Correction Factor is the luminescence of the strain BMA64/luc with blank solvent divided by the luminescence of the control strain with the sample. Values higher than 2 are considered toxic (Leskinen et al. 2005). […] Each experiment was performed in triplicate.

human ERα = target: T1, human ERα (Homo sapiens, UniProt P03372); experiment: Yeast bioluminescent assay, S. cerevisiae BMAEREluc/ERα (ERE-luc reporter); format: cell-based; conditions: negative control, Fig. 1a
T1 construct: expressed in transfected cells; host or cells: Saccharomyces cerevisiae BMAEREluc/ERα (recombinant yeast, gift of Dr. Johanna Rajasärkkä, University of Helsinki)
T1 sequence (P03372 1-595): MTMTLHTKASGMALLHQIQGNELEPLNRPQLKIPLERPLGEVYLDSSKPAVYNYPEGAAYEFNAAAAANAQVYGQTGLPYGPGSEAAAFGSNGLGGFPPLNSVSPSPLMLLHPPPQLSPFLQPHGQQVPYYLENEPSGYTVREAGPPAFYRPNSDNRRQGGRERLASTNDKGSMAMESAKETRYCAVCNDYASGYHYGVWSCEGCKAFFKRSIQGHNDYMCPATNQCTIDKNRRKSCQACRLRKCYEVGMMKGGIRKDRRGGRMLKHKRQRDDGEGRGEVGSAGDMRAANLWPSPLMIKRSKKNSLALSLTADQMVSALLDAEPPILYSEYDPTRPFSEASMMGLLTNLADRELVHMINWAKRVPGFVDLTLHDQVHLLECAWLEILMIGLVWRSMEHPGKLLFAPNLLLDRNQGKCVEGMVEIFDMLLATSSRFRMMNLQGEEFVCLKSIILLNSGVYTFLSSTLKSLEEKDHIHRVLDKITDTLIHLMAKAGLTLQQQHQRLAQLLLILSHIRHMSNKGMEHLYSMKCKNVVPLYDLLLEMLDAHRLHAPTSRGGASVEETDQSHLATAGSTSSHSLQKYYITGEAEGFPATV
Procedure: as §1, with “compounds. […]” for “compounds.”
as §2, with “The plate was incubated at 30°C for approximately 2.5 h, and was then shaken briefly.” left out, “measurement. […]” for “measurement.”

Compound	EC50 (MCF-7 cells [1]; Homo sapiens, MCF7, read-out: EC50 (proliferative effect)) [nM]	efficacy (maximum induction of cell growth) compared with 17β-estradiol (MCF-7 cells [1]; MCF-7 cells, MTT)	maximum level of cytotoxicity (LDH release) (MCF-7 cells [2])	Correction Factor (S. cerevisiae BMA64/luc; 5% DMSO, 10^−4 M)	Correction Factor (S. cerevisiae BMA64/luc; 5% DMSO, 10^−6 M)	Correction Factor (S. cerevisiae BMA64/luc; 5% DMSO, 10^−8 M)	Correction Factor (S. cerevisiae BMA64/luc; 5% DMSO, 10^−10 M)	Correction Factor (S. cerevisiae BMA64/luc; 5% DMSO, 10^−12 M)	Correction Factor (S. cerevisiae BMA64/luc; 5% DMSO, 10^−14 M)	Correction Factor (S. cerevisiae BMA64/luc; 5% ethanol, 10^−4 M)	Correction Factor (S. cerevisiae BMA64/luc; 5% ethanol, 10^−6 M)	Correction Factor (S. cerevisiae BMA64/luc; 5% ethanol, 10^−8 M)	Correction Factor (S. cerevisiae BMA64/luc; 5% ethanol, 10^−10 M)	Correction Factor (S. cerevisiae BMA64/luc; 5% ethanol, 10^−12 M)	Correction Factor (S. cerevisiae BMA64/luc; 5% ethanol, 10^−14 M)	luciferase activity (estrogenic response) (human ERα)	dose-response of proliferation (MCF-7 cells [1]; in the presence of 10^−12 M of 17β-estradiol, Fig. 2b)
O=c1c(-c2ccc(O)cc2)coc2cc(O)cc(O)c12 [genistein]	831	about half	less than 2.5%	3.19±0.42	2.59±0.95	3.59±1.22	2.20±0.05	2.59±0.45	3.88±1.32	1.59±0.17	1.27±0.42	1.18±0.24	1.07±0.04	1.30±0.22	1.58±0.23	–	–
CC(=O)[C@H]1CC[C@H]2[C@@H]3CCC4=CC(=O)CC[C@]4(C)[C@H]3CC[C@]12C [progesterone]	–	–	–	–	–	–	–	–	–	–	–	–	–	–	–	did not produce any detectable luciferase activity	–
CC/C(=C(\c1ccccc1)c1ccc(OCCN(C)C)cc1)c1ccccc1 [tamoxifen]	–	–	–	2.87±0.04	2.30±0.14	2.54±0.17	2.47±0.30	2.51±0.21	2.40±0.09	1.35±0.25	1.21±0.32	1.50±0.27	1.28±0.25	1.23±0.16	1.39±0.31	–	inverse dose-response curve
